From ChEMBL document CHEMBL5523736, “The First Discovery of Marine Polyoxygenated Cembranolides as Potential Agents for the Treatment of Ulcerative Colitis” (J Med Chem, 2024) come the findings set out here.

SMILES strings stand for the structures. The source made the active and inactive calls. The rule behind the calls is not given here.

For data set [1], the system named is RAW264.7. Put plainly: Antiinflammatory activity in LPS-induced mouse RAW264.7 cells assessed as reduction in TNF-alpha mRNA expression level at 20 uM by qRT-PCR analysis. Format: functional, cell-based. In general terms: Quantitative PCR measures a nucleic acid by following its amplification.
In data set [2] the test system is RAW264.7. Put plainly: Antiinflammatory activity in mouse RAW264.7 cells assessed as inhibition of LPS-induced NO production at 20 uM incubated for 24 hrs relative to control. Format: functional.
Data set [3] concerns RAW264.7. Briefly: Antiinflammatory activity in LPS-induced mouse RAW264.7 cells assessed as reduction in IL-6 mRNA expression level at 20 uM by qRT-PCR analysis. Type of data set: functional, cell-based.
Data set [4] deals with RAW264.7. Put plainly: Antiinflammatory activity in LPS-induced mouse RAW264.7 cells assessed as reduction in IL-1beta mRNA expression level at 20 uM by qRT-PCR analysis. Format: functional, cell-based.
Data set [5] concerns RAW264.7. Put plainly: Antiinflammatory activity in LPS-induced mouse RAW264.7 cells assessed as reduction in iNOS mRNA expression level at 20 uM by qRT-PCR analysis. Format: functional, cell-based.
Data set [6] has as its system RAW264.7. Briefly: Antiinflammatory activity in mouse RAW264.7 cells assessed as inhibition of LPS-induced NO production incubated for 24 hrs. Conditions: RAW264.7, 24 h. Type of data set: functional, cell-based.
A short description of data set [7]: Cytotoxicity against mouse RAW264.7 cells assessed as cell viability at 20 uM incubated for 24 hrs by CCK8 assay relative to control. Type of data set: toxicity, cell-based. Conditions: read-out: Activity. (Tetrazolium dyes change colour on reduction, which living cells bring about.)

For the compound `C=C1C(=O)O[C@]2(C)CC[C@@H]1C[C@@H]1O[C@@]1(C)CC[C@@H]1O[C@]1(C)CC[C@H]2OC(C)=O`, the outcome in the data set on RAW264.7 [1], with RAW264.7 [3], in the data set with RAW264.7 [4] and in the data set with RAW264.7 [5] was Active. Besides, the inhibition – broadly, the change of the read-out against control, counted positive when it falls – at 20 µM with RAW264.7 [2] is 141%. Further, the IC50 (usually the concentration at which inhibition is half-maximal) with RAW264.7 [6] worked out at 1.59 µM. For the same compound, the viability at 24 h, 20 µM in data set [7] turned out to be 92.7%.

For the compound `C=C1C(=O)O[C@]2(C)CC[C@@H]1C[C@H](O)[C@@]1(C)CC[C@H](O1)[C@](C)(O)CCC2=O`, the inhibition at 20 µM with RAW264.7 [2] came to 43%. The viability at 24 h, 20 µM in data set [7] came to 102%.

As to `C=C1C(=O)O[C@]2(C)CC[C@@H]1C/C=C(\C)CC/C=C(\C)CC[C@@H]2O`, the inhibition at 20 µM in the data set with RAW264.7 [2] worked out at 93.1%. The IC50 in the data set on RAW264.7 [6] was 12.7 µM. In data set [7], the viability at 24 h, 20 µM was 93.7%.

Take `C=C(C(=O)OC)[C@@H]1C/C=C(/C)[C@@H](O)CC/C(C)=C/CC[C@]2(C)O[C@H]2C1`: the inhibition at 20 µM in the data set on RAW264.7 [2] came out at 79.3%. Also, the viability at 24 h, 20 µM in data set [7] was determined as 93.7%.

For `C=C1C(=O)O[C@]2(C)CC[C@@H]1C[C@H](O)[C@@]1(C)CC[C@H](O1)[C@](C)(O)CC[C@H]2OC(C)=O` [QUERCIFORMOLIDE B], the inhibition at 20 µM in the data set on RAW264.7 [2] stood at 16.3%. Besides, the viability at 24 h, 20 µM in data set [7] is 103%.

In the case of `CNC(=N)NCCC[C@H](N)C(=O)O` [TILARGININE], the inhibition at 20 µM in the data set with RAW264.7 [2] was determined as 27.4%. In the data set on RAW264.7 [6], the IC50 amounted to 31.7 µM. In addition, the viability at 24 h, 20 µM in data set [7] is 92.7%.

For `C=C1C(=O)O[C@]2(C)CC[C@@H]1C[C@@H]1O[C@@]1(C)CC/C=C(\C)CC[C@H]2O`, the inhibition at 20 µM in the data set on RAW264.7 [2] is 86.7%. For the same compound, the IC50 in the data set with RAW264.7 [6] came to 13.1 µM. Further, the viability at 24 h, 20 µM in data set [7] turned out to be 92.8%.

`C=C(C(=O)OC)[C@@H]1CC[C@@]2(C)O[C@@H]2CC[C@](C)(O)/C=C/C[C@]2(C)O[C@H]2C1`: the inhibition at 20 µM in the data set on RAW264.7 [2] is 31.1%. For the same compound, the viability at 24 h, 20 µM in data set [7] stood at 108%.

On to `C=C(C(=O)OC)[C@@H]1CC[C@]2(C)O[C@@]2(O)CC/C(C)=C/CC[C@]2(C)O[C@@H]2C1`, for which the inhibition at 20 µM in the data set on RAW264.7 [2] came to 0%. Besides, the viability at 24 h, 20 µM in data set [7] turned out to be 94%.

In the case of `C=C1C(=O)O[C@]2(C)CC[C@@H]1C[C@H](O)[C@@]1(C)CC[C@H](O1)C(=C)CC[C@H]2O`, the inhibition at 20 µM with RAW264.7 [2] was found to be 39%. Further, the viability at 24 h, 20 µM in data set [7] is 89%.

Turning to `C=C1C(=O)O[C@]2(C)CC[C@@H]1C[C@@H]1O[C@@]1(C)C/C=C/[C@@](C)(O)CC[C@H]2OC(C)=O`, in the data set with RAW264.7 [2], the inhibition at 20 µM stood at 99.5%. In the data set on RAW264.7 [6], the IC50 came to 10.1 µM. Also, in data set [7], the viability at 24 h, 20 µM turned out to be 87.9%.

Consider `C=C(C(=O)OC)[C@@H]1CC[C@@](C)(O)[C@@H](OC(C)=O)CC/C(C)=C/C/C=C(\C)[C@H](O)C1`, for which the inhibition at 20 µM in the data set on RAW264.7 [2] came out at 55.7%. Besides, the viability at 24 h, 20 µM in data set [7] came to 89.2%.

Turning to `C=C1C(=O)O[C@]2(C)CC[C@@H]1C[C@@H]1O[C@@]1(C)CC[C@H](OC(C)=O)[C@@]1(C)CC[C@@H]2O1`, in the data set on RAW264.7 [2], the inhibition at 20 µM came to 36.7%. The viability at 24 h, 20 µM in data set [7] came to 103%.

In the case of `C=C1C(=O)O[C@]2(C)CC[C@@H]1C[C@H](OC(C)=O)[C@@]1(C)CC[C@H](O1)[C@](C)(O)CC[C@H]2O`, the inhibition at 20 µM in the data set with RAW264.7 [2] was 25.8%. Further, the viability at 24 h, 20 µM in data set [7] amounted to 109%.

As for `C=C(C(=O)OC)[C@@H]1CC[C@@](C)(O)[C@@H]2CC[C@@](C)(O2)[C@@H](OC(C)=O)CC[C@]2(C)O[C@H]2C1` [DENDRONPHOLIDE G], the inhibition at 20 µM in the data set on RAW264.7 [2] is -49%. Also, the viability at 24 h, 20 µM in data set [7] amounted to 83%.

In the case of `C=C(C(=O)OC)[C@@H]1CC[C@@](C)(O)C(=O)CC[C@](C)(O)/C=C/C[C@]2(C)O[C@H]2C1`, in the data set on RAW264.7 [2], the inhibition at 20 µM stood at 29.1%. Besides, the viability at 24 h, 20 µM in data set [7] was 98.1%.

In the case of `C=C1C(=O)O[C@]2(C)CC[C@@H]1C[C@H](O)[C@@]1(C)CC[C@H](OC(C)=O)[C@@](C)(CCC2=O)O1` [QUERCIFORMOLIDE A], in the data set on RAW264.7 [2], the inhibition at 20 µM was 85.1%. Also, in the data set on RAW264.7 [6], the IC50 came to 9.48 µM. Besides, the viability at 24 h, 20 µM in data set [7] came out at 94.1%.

For `C=C1C(=O)O[C@]2(C)CC[C@@H]1C[C@H](O)[C@@]1(C)CC/C=C(/CCC2=O)COO1`, the inhibition at 20 µM with RAW264.7 [2] turned out to be 34.4%. In data set [7], the viability at 24 h, 20 µM was found to be 94.5%.

In the case of `C=C(C(=O)OC)[C@@H]1CC[C@@](C)(O)[C@@H](OC(C)=O)CC/C(C)=C/CC[C@]2(C)O[C@H]2C1`, the inhibition at 20 µM in the data set on RAW264.7 [2] was -4.67%. Moreover, in data set [7], the viability at 24 h, 20 µM is 104%.

As for `C=C1C(=O)O[C@]2(C)CC[C@@H]1C[C@H]1O[C@@]1(C)C/C=C/[C@](C)(OO)CC[C@H]2O`, the outcome with RAW264.7 [1], in the data set with RAW264.7 [3], in the data set with RAW264.7 [4] and with RAW264.7 [5] was Active. Besides, the inhibition at 20 µM with RAW264.7 [2] came out at 124%. Moreover, the IC50 in the data set with RAW264.7 [6] was determined as 0.84 µM. The viability at 24 h, 20 µM in data set [7] stood at 108%.

Consider `C=C1C(=O)O[C@]2(C)CC[C@@H]1C[C@@H]1O[C@@]1(C)CC[C@H](O)[C@](C)(O)CCC2=O`, for which the result in the data set with RAW264.7 [1], with RAW264.7 [3], in the data set with RAW264.7 [4] and in the data set on RAW264.7 [5] was Active. Further, in the data set on RAW264.7 [2], the inhibition at 20 µM is 90%. Besides, the IC50 in the data set on RAW264.7 [6] was determined as 1.98 µM. In addition, the viability at 24 h, 20 µM in data set [7] is 89%.

Regarding `C=C1C(=O)O[C@]2(C)CC[C@@H]1C[C@@H]1O[C@@]1(C)CC/C=C(\C)CC[C@@H]2O` [SINULARIOLIDE], the outcome with RAW264.7 [1], in the data set on RAW264.7 [3], in the data set on RAW264.7 [4] and in the data set with RAW264.7 [5] was Active. In the data set with RAW264.7 [2], the inhibition at 20 µM worked out at 108%. The IC50 in the data set with RAW264.7 [6] worked out at 3.61 µM. The viability at 24 h, 20 µM in data set [7] is 83.3%.

In the case of `C=C(C(=O)OC)[C@@H]1CC[C@]2(C)O[C@H]2CC[C@](C)(OO)/C=C/C[C@]2(C)O[C@@H]2C1`, the inhibition at 20 µM with RAW264.7 [2] was 35.4%. The viability at 24 h, 20 µM in data set [7] turned out to be 87.4%.

Turning to `C=C1C(=O)O[C@]2(C)CC[C@@H]1C[C@H](O)[C@@]1(C)CC[C@H](O1)C(=C)CCC2=O`, the inhibition at 20 µM in the data set on RAW264.7 [2] worked out at 34%. Besides, the viability at 24 h, 20 µM in data set [7] is 89.5%.

`C=C(C(=O)OC)[C@@H]1CC[C@@](C)(O)C(=O)CC/C(C)=C/CC[C@]2(C)O[C@H]2C1`: the inhibition at 20 µM with RAW264.7 [2] was found to be 35.7%. The viability at 24 h, 20 µM in data set [7] came to 116%.

For the compound `C=C1C(=O)O[C@]2(C)CC[C@@H]1C[C@H](O)[C@@]1(C)CC[C@H](O1)C(=C)CC[C@H]2OC(C)=O` [GRANOSOLIDE A], in the data set on RAW264.7 [2], the inhibition at 20 µM came out at 31%. In addition, in data set [7], the viability at 24 h, 20 µM is 88.7%.

Consider `C=C1C(=O)O[C@]2(C)CC[C@@H]1C[C@H](OC(C)=O)[C@@]1(C)CC[C@H](O1)C(=C)CC[C@H]2OC(C)=O` [GRANOSOLIDE B], for which the inhibition at 20 µM with RAW264.7 [2] was determined as 56%. Further, the viability at 24 h, 20 µM in data set [7] was 102%.

`C=C1CO[C@]2(C)CC[C@@H]1C[C@]1(O)O[C@@]1(C)CC/C=C(\C)CC[C@@H]2O`: the inhibition at 20 µM in the data set with RAW264.7 [2] was -146%. In data set [7], the viability at 24 h, 20 µM worked out at 82.3%.

Take `C=C1C(=O)O[C@]2(C)CC[C@@H]1C[C@@H]1O[C@@]1(C)C/C=C/[C@@](C)(OO)CCC2=O`: in the data set on RAW264.7 [2], the inhibition at 20 µM was determined as 48.7%. In data set [7], the viability at 24 h, 20 µM amounted to 93.7%.
